Assay: Evaluation 1: Solubility Measurement (dissolution state in dilution solvents)
Format: physicochemical
Conditions: stirred at 25° C. and 100 rpm for one hour; for Amount of dissolved compound (wt %), CH2Cl2: solvent CH2Cl2 added to 0.5 g of compound; for Amount of dissolved compound (wt %), MeOH: solvent MeOH added to 0.5 g of compound; for Amount of dissolved compound (wt %), Cyclohexanone: solvent cyclohexanone added to 0.5 g of compound
Method: Evaluation 1: Solubility Measurement
Dilution solvents (MeOH, CH2Cl2, cyclohexanone) were respectively added to 0.5 g of the compounds represented by Chemical Formula 6-1 to Chemical Formula 17-2 and the compound represented by Chemical Formula X-1, and each solution was stirred with Mixrotar VMR-5 (Iuchi Seieido Co., Ltd.) at 25° C. and 100 rpm for one hour.

SMILES	Amount of dissolved compound (wt %), CH2Cl2	Amount of dissolved compound (wt %), MeOH	Amount of dissolved compound (wt %), Cyclohexanone
C=C(C)C(=O)OCCNC(=O)OCCN(CC)c1ccc2c(-c3ccccc3S(=O)(=O)[O-])c3ccc(=[N+](CC)CC)cc-3oc2c1 [Chemical Formula 6-1]	>10% wt %	>10% wt %	>3% wt %
C=C(C)C(=O)OCCNC(=O)OCCN(CC)c1ccc2c(-c3ccccc3S(=O)(=O)[N-]S(=O)(=O)C(F)(F)F)c3ccc(=[N+](CC)CC)cc-3oc2c1 [Chemical Formula 6-2]	>10% wt %	>10% wt %	>3% wt %
C=C(C)C(=O)OCCNC(=O)OCCN(CCCC)c1ccc2c(-c3ccccc3S(=O)(=O)[O-])c3cc/c(=[N+](\CC)CCCC)cc-3oc2c1 [Chemical Formula 7-1]	>10% wt %	>10% wt %	>3% wt %
C=C(C)C(=O)OCCNC(=O)OCCN(CCCC)c1ccc2c(-c3ccccc3S(=O)(=O)[N-]S(=O)(=O)C(F)(F)F)c3cc/c(=[N+](\CC)CCCC)cc-3oc2c1 [Chemical Formula 7-2]	>10% wt %	>10% wt %	>3% wt %
C=C(C)C(=O)OCCNC(=O)OCCN(CC)c1ccc2c(-c3ccccc3S(=O)(=O)[O-])c3cc/c(=[N+](\CC)c4ccccc4)cc-3oc2c1 [Chemical Formula 8-1]	>10% wt %	>10% wt %	>3% wt %
C=C(C)C(=O)OCCNC(=O)OCCN(CC)c1ccc2c(-c3ccccc3S(=O)(=O)[N-]S(=O)(=O)C(F)(F)F)c3cc/c(=[N+](\CC)c4ccccc4)cc-3oc2c1 [Chemical Formula 8-2]	>10% wt %	>10% wt %	>3% wt %
CCN(CCOC(=O)Nc1ccccc1)c1ccc2c(-c3ccccc3S(=O)(=O)[O-])c3ccc(=[N+](CC)CC)cc-3oc2c1 [Chemical Formula 9-1]	>10% wt %	>10% wt %	>1% wt %
CCN(CCOC(=O)Nc1ccccc1)c1ccc2c(-c3ccccc3S(=O)(=O)[N-]S(=O)(=O)C(F)(F)F)c3ccc(=[N+](CC)CC)cc-3oc2c1 [Chemical Formula 9-2]	>10% wt %	>10% wt %	>1% wt %
C=C(C)C(=O)OCCNC(=O)OCCN(CC)c1ccc2c(-c3ccccc3S(=O)(=O)[O-])c3cc/c(=[N+](/CC)CCOC(=O)NCCOC(=O)C(=C)C)cc-3oc2c1 [Chemical Formula 10-1]	>10% wt %	>10% wt %	>5% wt %
C=C(C)C(=O)OCCNC(=O)OCCN(CC)c1ccc2c(-c3ccccc3S(=O)(=O)[N-]S(=O)(=O)C(F)(F)F)c3cc/c(=[N+](/CC)CCOC(=O)NCCOC(=O)C(=C)C)cc-3oc2c1 [Chemical Formula 10-2]	>10% wt %	>10% wt %	>5% wt %
C=C(C)C(=O)OCCNC(=O)OCCN(CCCC)c1ccc2c(-c3ccccc3S(=O)(=O)[O-])c3cc/c(=[N+](/CCCC)CCOC(=O)NCCOC(=O)C(=C)C)cc-3oc2c1 [Chemical Formula 11-1]	>10% wt %	>10% wt %	>5% wt %
C=C(C)C(=O)OCCNC(=O)OCCN(CCCC)c1ccc2c(-c3ccccc3S(=O)(=O)[N-]S(=O)(=O)C(F)(F)F)c3cc/c(=[N+](/CCCC)CCOC(=O)NCCOC(=O)C(=C)C)cc-3oc2c1 [Chemical Formula 11-2]	>10% wt %	>10% wt %	>5% wt %
C=C(C)C(=O)OCCNC(=O)OCCN(CC)c1ccc2c(-c3ccccc3S(=O)(=O)[O-])c3cc/c(=[N+](\CCOC(=O)NCCOC(=O)C(=C)C)c4ccccc4)cc-3oc2c1 [Chemical Formula 12-1]	>10% wt %	>10% wt %	>5% wt %

Second part, the molecule after the results:

Amount of dissolved compound (wt %), CH2Cl2	Amount of dissolved compound (wt %), MeOH	Amount of dissolved compound (wt %), Cyclohexanone	SMILES
>10% wt %	>10% wt %	>5% wt %	C=C(C)C(=O)OCCNC(=O)OCCN(CC)c1ccc2c(-c3ccccc3S(=O)(=O)[N-]S(=O)(=O)C(F)(F)F)c3cc/c(=[N+](\CCOC(=O)NCCOC(=O)C(=C)C)c4ccccc4)cc-3oc2c1 [Chemical Formula 12-2]
>10% wt %	>10% wt %	>3% wt %	CCN(CCOC(=O)Nc1ccccc1)c1ccc2c(-c3ccccc3S(=O)(=O)[O-])c3cc/c(=[N+](/CC)CCOC(=O)Nc4ccccc4)cc-3oc2c1 [Chemical Formula 13-1]
>10% wt %	>10% wt %	>3% wt %	CCN(CCOC(=O)Nc1ccccc1)c1ccc2c(-c3ccccc3S(=O)(=O)[N-]S(=O)(=O)C(F)(F)F)c3cc/c(=[N+](/CC)CCOC(=O)Nc4ccccc4)cc-3oc2c1 [Chemical Formula 13-2]
>10% wt %	>10% wt %	>5% wt %	C=CC(=O)OCCNC(=O)OCCN(CC)c1ccc2c(-c3ccccc3S(=O)(=O)[O-])c3cc/c(=[N+](/CC)CCOC(=O)NCCOC(=O)C=C)cc-3oc2c1 [Chemical Formula 14-1]
>10% wt %	>10% wt %	>5% wt %	C=CC(=O)OCCNC(=O)OCCN(CC)c1ccc2c(-c3ccccc3S(=O)(=O)[N-]S(=O)(=O)C(F)(F)F)c3cc/c(=[N+](/CC)CCOC(=O)NCCOC(=O)C=C)cc-3oc2c1 [Chemical Formula 14-2]
>10% wt %	>10% wt %	>5% wt %	C=C(C)c1cccc(C(C)(C)NC(=O)OCCN(CC)c2ccc3c(-c4ccccc4S(=O)(=O)[O-])c4cc/c(=[N+](/CC)CCOC(=O)NC(C)(C)c5cccc(C(=C)C)c5)cc-4oc3c2)c1 [Chemical Formula 15-1]
>10% wt %	>10% wt %	>5% wt %	C=C(C)c1cccc(C(C)(C)NC(=O)OCCN(CC)c2ccc3c(-c4ccccc4S(=O)(=O)[N-]S(=O)(=O)C(F)(F)F)c4cc/c(=[N+](/CC)CCOC(=O)NC(C)(C)c5cccc(C(=C)C)c5)cc-4oc3c2)c1 [Chemical Formula 15-2]
>10% wt %	>10% wt %	>1% wt %	CCN(CCOC(=O)NC1CCCCC1)c1ccc2c(-c3ccccc3S(=O)(=O)[O-])c3ccc(=[N+](CC)CC)cc-3oc2c1 [Chemical Formula 16-1]
>10% wt %	>10% wt %	>1% wt %	CCN(CCOC(=O)NC1CCCCC1)c1ccc2c(-c3ccccc3S(=O)(=O)[N-]S(=O)(=O)C(F)(F)F)c3ccc(=[N+](CC)CC)cc-3oc2c1 [Chemical Formula 16-2]
>10% wt %	>10% wt %	>3% wt %	CCN(CCOC(=O)NC1CCCCC1)c1ccc2c(-c3ccccc3S(=O)(=O)[O-])c3cc/c(=[N+](/CC)CCOC(=O)NC4CCCCC4)cc-3oc2c1 [Chemical Formula 17-1]
>10% wt %	>10% wt %	>3% wt %	CCN(CCOC(=O)NC1CCCCC1)c1ccc2c(-c3ccccc3S(=O)(=O)[N-]S(=O)(=O)C(F)(F)F)c3cc/c(=[N+](/CC)CCOC(=O)NC4CCCCC4)cc-3oc2c1 [Chemical Formula 17-2]
<1% wt %	>10% wt %	<1% wt %	CCN(CC)c1ccc2c(-c3ccccc3S(=O)(=O)O)c3ccc(=[N+](CC)CC)cc-3oc2c1 [Chemical Formula X-1, reference compound]

Reference: patent US10101655B2, “Compound, polymer, photosensitive resin composition, and color filter” (SAMSUNG SDI CO., LTD., priority 2016, dated 2018)
